Data taken from patent US20250304551A1 (SHANGHAI APEIRON THERAPEUTICS COMPANY LIMITED, priority 2022, published 2025).
pIC50: −log10 of the molar value.

Experiments:
[1] = system: OVCAR3 cells; assay: Cell proliferation activity test, OVCAR3 (CyQUANT Direct); type: cell-based; conditions: Homo sapiens, OVCAR-3, 72 h, 3 days incubation, CyQUANT fluorescence detection, read-out: OVCAR-3 Cell Viability_IC50_nM
Experimental: Materials and Cells: OVCAR3 cells were purchased from Nanjing Cobioer Biosciences Co., Ltd. RPMI-1640 medium, fetal bovine serum, and the CyQUANT Direct Cell Proliferation Assay kit were purchased from Thermo Fisher Scientific, USA; 96-well cell culture plates were sourced from Corning, USA.
Cell Culture: Culture OVCAR3 cells with RPMI-1640 medium containing […] and incubate them in a […] incubator at 37° C. Only cells in the logarithmic growth phase can be used for the test.
Inoculate OVCAR3 cells into a 96-well cell culture plate at 90 μL per well and incubate overnight in a […] incubator at 37° C. Dissolve the compound powder in DMSO to prepare a stock solution of 10 mM. Then perform gradient dilution for the compounds in the microplate to achieve a final concentration of 0-10 μM. Add 10 μL of cell culture medium containing compounds to each well to make the final DMSO content 0.20%. Incubate the cell plates in a […] incubator at 37° C. for 3 days. Add 100 μL of CyQUANT detection reagent to each well, react at 37° C. for 60 min, and perform fluorescence detection using the PerkinElmer Envision.

[2] = system: HT29 cells; assay: CyQuant cell proliferation activity test, HT29; type: cell-based; conditions: Homo sapiens, HT-29, 72 h, HT29 2000 cells per well, 3 days incubation, initial concentration 3000 nM, IC50 by XLFIT, read-out: HT-29 Cell Viability_IC50_nM
Experimental: Materials and Cells: HT29 cells were purchased from Nanjing Cobioer Biosciences Co., Ltd.; RPM-1640 medium, fetal bovine serum, Trypsin-EDTA (0.25%), DMSO, 96-well plates, and CyQuant reagents were purchased from ThermoFisher (USA).
Cell Culture: Culture HT29 cells with RPMI-1640 containing 10% fetal bovine serum under the condition of 37° C. and 5% CO2. Only cells in the logarithmic growth phase can be used for the test.
Cell Proliferation Activity Test: Use the CyQuant reagent to detect the proliferation inhibitory activity of compounds on HT29 cells. Adjust the cell density and inoculate 100 μL per well into the 96-well plate (HT29 at 2000 cells per well), then incubate overnight under the condition of 37° C. and […]. Add compounds of various target concentrations (initial concentration of 3000 nM, 3-fold dilution, 9 concentration gradients), and make the DMSO content 0.20%. Incubate the cell plates at 37° C. and 5% CO2 for 3 days. Incubate with CyQuant reagent for 1 h, read the plate by Envision, and calculate IC50 using XLFIT.

[3] = target: T1, Human KIF18A (amino acid sequence 1-417) (Homo sapiens, UniProt Q8NI77); assay: Enzyme activity detection experiment (ADP-Glo, KIF18A with tubulin and ATP); type: biochemical; conditions: tubulin 60 μg/mL, ATP 25 μM, KIF18A protein 2.5 nM, 120 minutes at ambient temperature, ADP-Glo chemiluminescence
T1 construct: purchased Viva Biotech (Shanghai) Ltd
Experimental: Materials: Human KIF18A (amino acid sequence 1-417) was obtained from Viva Biotech (Shanghai) Ltd., and the ADP-Glo™ protein kinase kit was acquired from Promega, USA. Tubulin was sourced from Cytoskeleton, USA, while a 384-well assay plate and the Envision multifunctional microplate reader were obtained from PerkinElmer, USA.
Enzyme activity detection: The compound powder in DMSO was firstly dissolved to prepare a 10 mM stock solution. Next, gradient dilutions were prepared in the microplate to achieve final concentrations of […]. Sequentially, 2.5 μL of tubulin (60 μg/mL), the compound, ATP (25 μM), and KIF18A protein (2.5 nM) were added to each well, and the reaction was incubated at ambient temperature for 120 minutes. After the reaction, 10 μL of ADP-Glo™ reagent was added to each well and incubated at ambient temperature for 30 minutes. Subsequently, 20 μL of detection reagent was added to each well and incubated for an additional 30 minutes in the dark. Finally, chemiluminescence detection was performed using the PerkinElmer Envision multifunctional microplate reader.

T1 sequence (Q8NI77 1-417): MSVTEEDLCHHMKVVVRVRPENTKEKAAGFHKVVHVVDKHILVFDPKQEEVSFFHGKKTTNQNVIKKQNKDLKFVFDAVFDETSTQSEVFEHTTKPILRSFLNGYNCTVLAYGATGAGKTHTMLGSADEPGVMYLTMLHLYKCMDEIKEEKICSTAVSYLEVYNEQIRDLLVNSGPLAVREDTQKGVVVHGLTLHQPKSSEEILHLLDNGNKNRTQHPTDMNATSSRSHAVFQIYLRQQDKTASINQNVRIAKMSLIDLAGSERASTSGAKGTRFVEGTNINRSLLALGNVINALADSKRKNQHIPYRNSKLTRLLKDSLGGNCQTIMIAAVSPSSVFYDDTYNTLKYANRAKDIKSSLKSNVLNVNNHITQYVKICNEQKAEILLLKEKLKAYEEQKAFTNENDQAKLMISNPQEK
T1 sequence (Q2XVP4 whole entry partner): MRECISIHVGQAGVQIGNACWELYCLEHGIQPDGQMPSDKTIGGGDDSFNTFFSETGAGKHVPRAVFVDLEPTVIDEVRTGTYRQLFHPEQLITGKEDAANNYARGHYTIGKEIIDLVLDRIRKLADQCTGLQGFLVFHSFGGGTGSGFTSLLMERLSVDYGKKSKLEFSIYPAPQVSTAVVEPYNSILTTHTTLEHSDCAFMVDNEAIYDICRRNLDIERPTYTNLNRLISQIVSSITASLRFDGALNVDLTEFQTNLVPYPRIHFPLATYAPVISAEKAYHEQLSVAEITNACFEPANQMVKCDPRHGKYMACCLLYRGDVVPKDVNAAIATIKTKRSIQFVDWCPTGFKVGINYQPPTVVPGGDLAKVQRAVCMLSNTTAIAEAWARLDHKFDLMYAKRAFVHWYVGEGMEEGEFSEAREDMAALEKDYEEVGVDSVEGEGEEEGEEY
T1 sequence (P02554 whole entry partner): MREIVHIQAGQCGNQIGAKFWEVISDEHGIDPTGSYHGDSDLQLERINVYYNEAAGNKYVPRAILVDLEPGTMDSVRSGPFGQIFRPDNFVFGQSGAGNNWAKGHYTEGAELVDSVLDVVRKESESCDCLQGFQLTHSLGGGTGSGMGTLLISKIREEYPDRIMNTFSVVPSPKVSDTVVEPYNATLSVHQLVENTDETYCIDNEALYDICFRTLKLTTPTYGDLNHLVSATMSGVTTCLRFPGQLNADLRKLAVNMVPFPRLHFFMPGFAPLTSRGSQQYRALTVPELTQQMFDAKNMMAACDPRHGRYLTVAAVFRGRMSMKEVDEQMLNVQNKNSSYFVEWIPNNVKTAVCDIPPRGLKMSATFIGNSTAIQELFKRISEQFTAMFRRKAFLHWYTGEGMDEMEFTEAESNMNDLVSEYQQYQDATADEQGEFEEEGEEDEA

Row | SMILES | pIC50 [1] | pIC50 [2] | pIC50 [3]
1 | Nc1nc2c(N3CCC(F)(F)CC3)c(F)c(-c3cn(-c4ccc(NS(=O)(=O)CCO)cc4N4CCC5(CC4)CC5)nn3)cc2s1 [Example 81, N-(4-{4-[2-amino-4-(4,4-difluoropiperidin-1-yl)-5-fluoro-1,3-benzothiazol-6-yl]-1H-1,2,3-triazol-1-yl}-3-{6-azaspiro[2.5]octan-6-yl}phenyl)-2-hydroxyethane-1-sulfonamide] | 7.70 | 7.52 | 6.15
2 | CNc1cc(-c2cn(-c3ccc(NS(=O)(=O)CCO)cc3N3CCC4(CC3)CC4)nn2)nc(N2CCC(F)(F)CC2)n1 [Example 56, N-(3-{6-azaspiro[2.5]octan-6-yl}-4-{4-[2-(4,4-difluoropiperidin-1-yl)-6-(methylamino)pyrimidin-4-yl]-1H-1,2,3-triazol-1-yl}phenyl)-2-hydroxyethane-1-sulfonamide] | 8.05 | 8.10 | 6.96
3 | Cc1cc(-c2nnc(-c3ccc(NS(=O)(=O)CCO)cc3N3CCC4(CC3)CC4)o2)nc(N2CCC(F)(F)CC2)n1 [Example 15, N-(4-(5-(2-(4,4-difluoropiperidin-1-yl)-6-methylpyrimidin-4-yl)-1,3,4-oxadiazol-2-yl)-3-(6-azaspiro[2.5]octan-6-yl)phenyl)-2-hydroxyethane-1-sulfonamide] | 7.21 | 7.22 | 7.22
4 | Cc1cc(-c2cn(-c3ccc(NS(=O)(=O)CCO)cc3N3CCC4(CC3)CC4)nn2)c(F)c(N2CCC(F)(F)CC2)n1 [Example 65, N-(4-(4-(2-(4,4-difluoropiperidin-1-yl)-3-fluoro-6-methylpyridin-4-yl)-1H-1,2,3-triazol-1-yl)-3-(6-azaspiro[2.5]octan-6-yl)phenyl)-2-hydroxyethane-1-sulfonamide] | 6.94 | 6.90 | 6.42
5 | O=S(=O)(CCO)Nc1ccc(-n2cc(-c3cc(NC4CCOCC4)nc(N4CCC(F)(F)CC4)n3)nn2)c(N2CCC3(CC2)CC3)c1 [Example 58, N-(3-{6-azaspiro[2,5]octan-6-yl}-4-{4-[2-(4,4-difluoropiperidin-1-yl)-6-[(oxan-4-yl)amino]pyrimidin-4-yl]-1H-1,2,3-triazol-1-yl}phenyl)-2-hydroxyethane-1-sulfonamide] | 6.65 | 6.54 | 6.11
6 | CN(C)c1cc(-c2cn(-c3ccc(NS(=O)(=O)CCO)cc3N3CCC4(CC3)CC4)nn2)nc(N2CCC(F)(F)CC2)n1 [Example 54, N-(3-{6-azaspiro[2.5]octan-6-yl}-4-{4-[2-(4,4-difluoropiperidin-1-yl)-6-(dimethylamino)pyrimidin-4-yl]-1H-1,2,3-triazol-1-yl}phenyl)-2-hydroxyethane-1-sulfonamide] | 7.08 | 7.14 | 6.56
7 | COc1cc(-c2nnc(-c3ccc(NS(=O)(=O)CCO)cc3N3CCC4(CC3)CC4)o2)nc(N2CCC(F)(F)CC2)n1 [Example 20, N-(4-(5-(2-(4,4-difluoropiperidin-1-yl)-6-methoxypyrimidin-4-yl)-1,3,4-oxadiazol-2-yl)-3-(6-azaspiro[2.5]octan-6-yl)phenyl)-2-hydroxyethane-1-sulfonamide] | 6.86 | 7.26 | 7.21
8 | Nc1cc2cc(-c3cn(-c4ccc(NS(=O)(=O)CCO)cc4N4CCC5(CC4)CC5)nn3)cc(N3CCC(F)(F)CC3)c2nn1 [Example 77, N-(4-(4-(3-amino-8-(4,4-difluoropiperidin-1-yl)cinnolin-6-yl)-1H-1,2,3-triazol-1-yl)-3-(6-azaspiro[2.5]octan-6-yl)phenyl)-2-hydroxyethane-1-sulfonamide] | 7.89 | 7.92 | 7.19
9 | Cc1cc(-c2cn(-c3ccc(NS(=O)(=O)CCO)cc3N3CCC4(CC3)CC4)nn2)nc(N2C3CCC2COC3)n1 [Example 48, N-(4-(4-(2-(3-oxa-8-azabicyclo[3.2.1]octan-8-yl)-6-methylpyrimidin-4-yl)-1H-1,2,3-triazol-1-yl)-3-(6-azaspiro[2.5]octan-6-yl)phenyl)-2-hydroxyethane-1-sulfonamide] | 7.77 | 7.85 | 7.66
10 | Cc1cc(-c2nnc(-c3ccc(N4CCCS4(=O)=O)cc3N3CCC4(CC3)CC4)o2)nc(N2CCC(F)(F)CC2)n1 [Example 28, 2-(4-(5-(2-(4,4-difluoropiperidin-1-yl)-6-methylpyrimidin-4-yl)-1,3,4-oxadiazol-2-yl)-3-(6-azaspiro[2.5]octan-6-yl)phenyl)isothiazolidine 1,1-dioxide] | 6.93 | 6.72 | 6.53
11 | Cc1cc(-c2noc(-c3ccc(NS(=O)(=O)CCO)cc3N3CCC4(CC3)CC4)n2)nc(N2CCC(F)(F)CC2)n1 [Example 7] | 5.93 | < 5.52 | 6.99
12 | Cc1cc(-n2cc(-c3ccc(NS(=O)(=O)[C@@H](C)CO)cc3N3CCC4(CC3)CC4)nn2)nc(N2CCC(F)(F)CC2)n1 [Example 93, (2S)—N-(3-{6-azaspiro[2.5]octan-6-yl}-4-{1-[2-(4,4-difluoropiperidin-1-yl)-6-methylpyrimidin-4-yl]-1H-1,2,3-triazol-4-yl}phenyl)-1-hydroxypropane-2-sulfonamide] | 7.07 | 7.08 | 6.50
13 | Cc1cc(-c2cn(-c3ccc(NS(=O)(=O)CCO)cc3N3CCC(=C(F)F)CC3)nn2)nc(N2CCC(F)(F)CC2)n1 [Example 88, N-{3-[4-(difluoromethylidene)piperidin-1-yl]-4-{4-[2-(4,4-difluoropiperidin-1-yl)-6-methylpyrimidin-4-yl]-1H-1,2,3-triazol-1-yl}phenyl}-2-hydroxyethane-1-sulfonamide] | 7.54 | 7.28 | 6.93
14 | Cc1cc(-c2cn(-c3ccc(NS(=O)(=O)CCO)nc3N3CCC4(CC3)CC4)nn2)nc(N2CCC(F)(F)CC2)n1 [Example 66, N-(6-{6-azaspiro[2.5]octan-6-yl}-5-{4-[2-(4,4-difluoropiperidin-1-yl)-6-methylpyrimidin-4-yl]-1H-1,2,3-triazol-1-yl}pyridin-2-yl)-2-hydroxyethane-1-sulfonamide] | 7.28 | 7.27 | 7.21
15 | Cc1cc(-c2cn(-c3ccc(NS(=O)(=O)CCO)cc3N3CCC4(CC3)CC4)nn2)nc(N2CCO[C@@H](C)C2)n1 [Example 43, (S)-2-hydroxy-N-(4-(4-(6-methyl-2-(2-methylmorpholino)pyrimidin-4-yl)-1H-1,2,3-triazol-1-yl)-3-(6-azaspiro[2.5]octan-6-yl)phenyl)ethane-1-sulfonamide] | 7.80 | 7.74 | 7.36
16 | O=S(=O)(CCO)Nc1ccc(-n2cc(-c3cc(N4CCC(F)(F)CC4)c4ncccc4c3)nn2)c(N2CCC3(CC2)CC3)c1 [Example 72, N-(4-(4-(8-(4,4-difluoropiperidin-1-yl)quinolin-6-yl)-1H-1,2,3-triazol-1-yl)-3-(6-azaspiro[2.5]octan-6-yl)phenyl)-2-hydroxyethane-1-sulfonamide] | 7.70 | 7.60 | 6.72
17 | O=S(=O)(CCO)Nc1ccc(-n2cc(-c3cc(NCCO)nc(N4CCC(F)(F)CC4)n3)nn2)c(N2CCC3(CC2)CC3)c1 [Example 57, N-(3-{6-azaspiro[2.5]octan-6-yl}-4-{4-[2-(4,4-difluoropiperidin-1-yl)-6-[(2-hydroxyethyl)amino]pyrimidin-4-yl]-1H-1,2,3-triazol-1-yl}phenyl)-2-hydroxyethane-1-sulfonamide] | 8.10 | 8.35 | 7.14
